What was measured:
recombinant 20α-HSD [1] = target: T1, recombinant 20α-HSD (Rattus norvegicus, UniProt P51652); experiment: Substrate specificity, oxidation/reduction of steroid substrates, spectrophotometric; type: biochemical; parameters: a DNA fragment of 1.2 Kb containing the entire coding region of 20α-HSD; GST (E. coli preparation only; removed with thrombin) (N, cleaved yes); made in house; host or cells: E. coli DH5α (pGEX-4T-2) and Sf-9 insect cells (baculovirus, pBlueBacIII); conditions: for Recombinant 20α HSD activity, expressed in E. coli: enzyme expressed in E. coli; for Recombinant 20α HSD activity, expressed in E. coli / Recombinant 20α HSD activity, expressed in Sf-9 cells: spectrophotometric; for Recombinant 20α HSD activity, expressed in Sf-9 cells: enzyme expressed in Sf-9 cells
T1 sequence (P51652 1-323): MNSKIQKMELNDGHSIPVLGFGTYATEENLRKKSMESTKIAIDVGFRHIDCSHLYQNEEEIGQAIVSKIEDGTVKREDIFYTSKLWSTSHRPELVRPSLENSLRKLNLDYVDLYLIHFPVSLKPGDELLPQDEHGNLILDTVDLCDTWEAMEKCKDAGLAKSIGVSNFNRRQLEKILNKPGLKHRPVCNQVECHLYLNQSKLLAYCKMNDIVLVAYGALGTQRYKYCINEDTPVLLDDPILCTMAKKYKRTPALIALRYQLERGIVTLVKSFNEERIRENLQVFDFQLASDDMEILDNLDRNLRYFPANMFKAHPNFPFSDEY
Method: (§1) Enzyme activity of the recombinant 20α-HSD was determined by the rate of conversion of [1-2^3 H]-20α-hydroxy-pregn-4-ene-3-one (20α-hydroxprogesterone) to [1,2^3 H]progesterone in the presence of NADPH as described by Jones & Hsueh [J. Biol. Chem. 256:1248-1254 (1981)]. Enzyme activity was measured in this manner due to the fact that in an in vitro setting the reaction may be reversed, i.e. conversion of 20α-hydroxyprogesterone to progesterone. The assay mixtures (0.05 ml) contained 100 μM [1,2^3 H]hydroxyprogesterone [Dupont-New England Nuclear Research Products, Boston Mass.] […] Following incubation at 37° C. for 30 minutes, the [^3 H]progesterone content of each sample was determined after isolation by thin layer chromatography isolation. One unit of enzyme activity is defined as that amount of enzyme catalyzing the formation of 1 nmol of [^3 H]progesterone/minute from [1,2^3 H]hydroxyprogesterone. Specific activity is expressed as units/min/mg protein. The protein concentration was determined by the Bradford method using bovine serum albumin [Sigma Chemical Co, St. Louis, Mo.] as the standard [Bradford, Anal. Biochem. 72:248-254 (1976)]. […] Acta. 799:51-58 (1984); Noda et al., Biochim Biophys. Acta. 1079:112-118 (1991)].
To determine substrate specificity of recombinant 20α-HSD, the oxidation/reduction of several steroid substrates was also studied. […] Acta. 799:51-58 (1984); Noda et al., Biochim Biophys. Acta. 1079:112-118 (1991)]. […] However, compared to 20α-hydroxyprogesterone, 20α-HSD activity toward 17α-hydroxyprogesterone was lower, and its activity with progesterone was relatively higher.
The enzyme activity was measured spectrophotometrically. The data are expressed as the mean of duplicate determinations from three separate experiments. ND, not detected.

recombinant 20α-HSD [2] = target: T1, recombinant 20α-HSD; experiment: Steady state kinetic constants (Lineweaver-Burk); type: biochemical; parameters: a DNA fragment of 1.2 Kb containing the entire coding region of 20α-HSD; GST (E. coli preparation only; removed with thrombin) (N, cleaved yes); made in house; host or cells: E. coli DH5α (pGEX-4T-2) and Sf-9 insect cells (baculovirus, pBlueBacIII); conditions: for concentration at which enzyme activity reached saturation / maximal activity: bacterially expressed enzyme, other reactant fixed (NADP 1 mM or 20α-hydroxyprogesterone 100 μM)
Excerpt: The data were transformed into a reciprocal Lineweaver-Burk plot to calculate the Km and maximum velocity (Vmax) values.

recombinant 20α-HSD [3] = target: T1, recombinant 20α-HSD; experiment: Aldo-keto (aldose/aldehyde) reductase activity, spectrophotometric NADPH oxidation at 340 nm; type: biochemical; parameters: a DNA fragment of 1.2 Kb containing the entire coding region of 20α-HSD; GST (E. coli preparation only; removed with thrombin) (N, cleaved yes); made in house; host or cells: E. coli DH5α (pGEX-4T-2) and Sf-9 insect cells (baculovirus, pBlueBacIII); conditions: for activity relative to that observed with 20α-hydroxyprogesterone: maximal activity among aldose/aldehyde reductase substrates; for reduction of substrate by 20α-HSD (in words): purified recombinant 20α-HSD proteins
Method: Aldo-keto reductase activity of the recombinant 20α-HSD was assayed spectrophotometrically by measuring the rate of oxidation of NADPH at 340 nm at 37° C. using a saturating concentration of benzaldehyde, 2-nitrobenzaldehyde, D,L -glyceraldehyde methylgloxal, 9,10-phenanthrequinone or ^D -galactose [Azhar et al., Biochemistry 26:7047-7057 (1987)].

[4] = substrate: C[C@H](O)[C@H]1CC[C@H]2[C@@H]3CCC4=CC(=O)CC[C@]4(C)[C@H]3CC[C@]12C; experiment: Steady state kinetic constants (Lineweaver-Burk); type: biochemical, rat
[5] = substrate: NC(=O)c1ccc[n+]([C@@H]2O[C@H](COP(=O)([O-])OP(=O)(O)OC[C@H]3O[C@@H](n4cnc5c(N)ncnc54)[C@H](OP(=O)(O)O)[C@@H]3O)[C@@H](O)[C@H]2O)c1; experiment: purified protein, by the assay type
recombinant 20α-HSD [6] = target: T1, recombinant 20α-HSD; experiment: 20α-HSD enzyme activity: conversion of [3H]20α-hydroxyprogesterone to [3H]progesterone; type: biochemical; parameters: a DNA fragment of 1.2 Kb containing the entire coding region of 20α-HSD; GST (E. coli preparation only; removed with thrombin) (N, cleaved yes); made in house; host or cells: E. coli DH5α (pGEX-4T-2) and Sf-9 insect cells (baculovirus, pBlueBacIII); conditions: for Mean Specific Activity ± SE: purified recombinant enzyme, Table 3
Method: as §1

[7] = other: enzyme expressed in E. coli, other reactant fixed (NADP 1 mM or 20α-hydroxyprogesterone 100 μM)
[8] = other: enzyme expressed in Sf-9 cells (baculovirus)

## CC(=O)[C@H]1CC[C@H]2[C@@H]3CCC4=CC(=O)CC[C@]4(C)[C@H]3CC[C@]12C [Progesterone]
Recombinant 20α-HSD [1]
  Recombinant 20α HSD activity, expressed in E. coli: 459 nmol/min/mg protein
  Recombinant 20α HSD activity, expressed in Sf-9 cells: 352 nmol/min/mg protein

## NC(=O)c1ccc[n+]([C@@H]2O[C@H](COP(=O)([O-])OP(=O)(O)OC[C@H]3O[C@@H](n4cnc5c(N)ncnc54)[C@H](OP(=O)(O)O)[C@@H]3O)[C@@H](O)[C@H]2O)c1 [NADP]
Recombinant 20α-HSD [2]
  concentration at which enzyme activity reached saturation / maximal activity: about 100 μM

## C[C@]12CCC(=O)C[C@@H]1CC[C@@H]1[C@@H]2CC[C@]2(C)[C@@H](O)CC[C@@H]12 [5α-dihydrotestosterone]
Recombinant 20α-HSD [1]
  action of recombinant 20α-HSD on substrate (in words): did not act on

## C[C@]12C[C@H](O)[C@H]3[C@@H](CCC4=CC(=O)CC[C@@]43C)[C@@H]1CC[C@@H]2C(=O)CO [Corticosterone]
Recombinant 20α-HSD [1]
  action of recombinant 20α-HSD on substrate (in words): did not act on

## C[C@H](O)[C@H]1CC[C@H]2[C@@H]3CCC4=CC(=O)CC[C@]4(C)[C@H]3CC[C@]12C [20α-Hydroxyprogesterone, 20α-hydroxy-pregn-4-ene-3-one]
Recombinant 20α-HSD [1]
  Recombinant 20α HSD activity, expressed in E. coli: 321 nmol/min/mg protein
  Recombinant 20α HSD activity, expressed in Sf-9 cells: 250 nmol/min/mg protein
Recombinant 20α-HSD [2]
  concentration at which enzyme activity reached saturation / maximal activity: around 10 μM

## CC(=O)[C@@]1(O)CC[C@H]2[C@@H]3CCC4=CC(=O)CC[C@]4(C)[C@H]3CC[C@@]21C [17α-Hydroxyprogesterone]
Recombinant 20α-HSD [1]
  Recombinant 20α HSD activity, expressed in E. coli: 97 nmol/min/mg protein
  Recombinant 20α HSD activity, expressed in Sf-9 cells: 85 nmol/min/mg protein

## O=Cc1ccccc1 [Benzaldehyde]
Recombinant 20α-HSD [3]
  activity relative to that observed with 20α-hydroxyprogesterone: approximately a third
  reduction of substrate by 20α-HSD (in words): very efficiently

## O=Cc1ccc([N+](=O)[O-])cc1 [4-Nitrobenzaldehyde]
Recombinant 20α-HSD [3]
  reduction of substrate by 20α-HSD (in words): very efficiently

## O=CC(O)CO (racemic) [D,L -Glyceraldehyde]
Recombinant 20α-HSD [3]
  activity relative to that observed with 20α-hydroxyprogesterone: approximately a third
  reduction of substrate by 20α-HSD (in words): very efficiently

B1: recombinant 20α-HSD (Rattus norvegicus) (protein)
chain: MNSKIQKMELNDGHSIPVLGFGTYATEENLRKKSMESTKIAIDVGFRHIDCSHLYQNEEEIGQAIVSKIEDGTVKREDIFYTSKLWSTSHRPELVRPSLENSLRKLNLDYVDLYLIHFPVSLKPGDELLPQDEHGNLILDTVDLCDTWEAMEKCKDAGLAKSIGVSNFNRRQLEKILNKPGLKHRPVCNQVECHLYLNQSKLLAYCKMNDIVLVAYGALGTQRYKYCINEDTPVLLDDPILCTMAKKYKRTPALIALRYQLERGIVTLVKSFNEERIRENLQVFDFQLASDDMEILDNLDRNLRYFPANMFKAHPNFPFSDEY
notes: a DNA fragment of 1.2 Kb containing the entire coding region of 20α-HSD; GST (E. coli preparation only; removed with thrombin) (N, cleaved yes); made in house; host or cells: E. coli DH5α (pGEX-4T-2) and Sf-9 insect cells (baculovirus, pBlueBacIII)
[4]; [7]
  Km: 5.9 µM
[4]; [8]
  Km: 5.8 µM
[5]; [7]
  Km: 9.5 µM
[5]; [8]
  Km: 9.6 µM

B2: recombinant 20α-HSD expressed in E. coli: rat 20α-HSD expressed as GST fusion in E. coli DH5α, thrombin-cleaved and purified (protein, UniProt P51652 1-323, looked up)
Aldo-keto reductase family 1 …: MNSKIQKMELNDGHSIPVLGFGTYATEENLRKKSMESTKIAIDVGFRHIDCSHLYQNEEEIGQAIVSKIEDGTVKREDIFYTSKLWSTSHRPELVRPSLENSLRKLNLDYVDLYLIHFPVSLKPGDELLPQDEHGNLILDTVDLCDTWEAMEKCKDAGLAKSIGVSNFNRRQLEKILNKPGLKHRPVCNQVECHLYLNQSKLLAYCKMNDIVLVAYGALGTQRYKYCINEDTPVLLDDPILCTMAKKYKRTPALIALRYQLERGIVTLVKSFNEERIRENLQVFDFQLASDDMEILDNLDRNLRYFPANMFKAHPNFPFSDEY
modifications: expressed in E. coli; GST tag thrombin-cleaved
notes: rat 20α-HSD expressed as GST fusion in E. coli DH5α, thrombin-cleaved and purified
Recombinant 20α-HSD [6]; purified enzyme from bacterial expression system
  average specific activity of the purified preparations: 332 ±47 nmol/min/mg protein
Recombinant 20α-HSD [6]
  Mean Specific Activity ± SE: 332 ± 47 nmol/min - mg protein
Recombinant 20α-HSD [2]; similar assay conditions
  Vmax values higher than those of 20α-HSD expressed in insect cells: 20-30%

B3: recombinant 20α-HSD expressed in Sf-9 cells: rat 20α-HSD expressed in baculovirus-infected Sf-9 insect cells and purified (protein, UniProt P51652 1-323, looked up)
Aldo-keto reductase family 1 …: MNSKIQKMELNDGHSIPVLGFGTYATEENLRKKSMESTKIAIDVGFRHIDCSHLYQNEEEIGQAIVSKIEDGTVKREDIFYTSKLWSTSHRPELVRPSLENSLRKLNLDYVDLYLIHFPVSLKPGDELLPQDEHGNLILDTVDLCDTWEAMEKCKDAGLAKSIGVSNFNRRQLEKILNKPGLKHRPVCNQVECHLYLNQSKLLAYCKMNDIVLVAYGALGTQRYKYCINEDTPVLLDDPILCTMAKKYKRTPALIALRYQLERGIVTLVKSFNEERIRENLQVFDFQLASDDMEILDNLDRNLRYFPANMFKAHPNFPFSDEY
modifications: expressed in baculovirus Sf-9 cells
notes: rat 20α-HSD expressed in baculovirus-infected Sf-9 insect cells and purified
Recombinant 20α-HSD [6]
  Mean Specific Activity ± SE: 259 ± 36 nmol/min - mg protein

— patent US6001353A, “20α-alpha-hydroxy steroid dehydrogenase related material and methods” (priority 1997, dated 1999)
